This is an account of results in paper PMC3790881, “Identification of Leptospira interrogans Phospholipase C as a Novel Virulence Factor Responsible for Intracellular Free Calcium Ion Elevation during Macrophage Death” (PLoS ONE, 2013).

This experiment has as its target T1, rL-PI-PLC (recombinant LB361 gene product; L-PI-PLC) (Leptospira interrogans, UniProt Q8EX56).
T1 construct: gene LB_361; entire LB361 gene (amplicon 384 bp) in pET42a, expressed in E. coli BL21DE3, Ni-NTA purified
The experiment in a line: IP3 fluorescence polarization assay, Lineweaver-Burk plot. Format: biochemical. The following applies: pH 7.0, 37 °C, 50 mM HEPES, 100 mM KCl, 1.9 mM CaCl2, 2 mM EGTA, 0.1% sodium deoxycholate; acyl chains of PIP2 not told. For orientation: Polarisation of emitted light reports the rotation of a fluorescent probe.

T1 sequence (Q8EX56 entry or part of it): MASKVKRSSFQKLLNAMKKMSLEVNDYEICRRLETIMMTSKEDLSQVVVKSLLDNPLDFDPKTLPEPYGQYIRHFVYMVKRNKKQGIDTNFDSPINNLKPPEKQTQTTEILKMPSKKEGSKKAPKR

As usually defined, the Km is the substrate concentration at which the rate is half of its maximum. As for PIP2, the Km is 199 µM.
